Reference: patent publication EP0099673A2, “Prostaglandin D derivatives, process for their preparation and compositions containing them” (ONO PHARMACEUTICAL CO., LTD., priority 1982, dated 1984)

System: human myelogenous leukemic cells (HL-60)
Assay: Test on inhibition of proliferation using human myelogenous leukemic cells (HL-60)
Format: cell-based
Settings: for Percentage Inhibition: HL-60, compound at 5 pg/ml, 4 days at 37 C, relative to control (0.1% ethanol); for Surviving Cell Number: HL-60, start 1 x 10^5 cells/ml, compound at 5 pg/ml, stationary culture at 37 C for 4 days, Trypan Blue staining, control 29.4 x 10^4
Experimental: rest on Inhibition of Proliferation Using Human Myeloqenous Leukemic Cells (HL-60)
The test on the inhibition of proliferation of human myelogenous leukemic cells was conducted by a well-known method. The human myelogenous leukemic cells (HL-60) were added to an RPMI culture solution containing 10% bovine fetal serum, the number of cells in the culture solution was adjusted to 1 x 10^5 cells/ml, a solution in ethanol of the compound under test was added to give a concentration of 5 pg/ml, and the mixture was subjected to stationary culture at 37 C for 4 days. As a control, a culture solution to which 0.1% of ethanol had been added was similarly cultured. After the cultivation, the culture solutions were stained by the Trypan Blue staining method and the surviving cell number was measured to determine the percentage inhibition relative to the control.

For `CCCCCC=CC=C1C(=O)C=C[C@@H]1CC(=O)CCCCC(=O)OC` [Methyl (9Z,12EZ,14EZ)-6,11-dioxoprosta-9,12,14-trienoate], which “Percentage Inhibition” value is on record?
Its value is 100%.

And the “Surviving Cell Number” value?
Its value is 0 cells/ml.

How did the “Percentage Inhibition” value turn out when “Methyl (13E)-(9α,15S)-6,11-dioxo-9,15- dihvdroxvprost-13-enoate [6-Keto-PGD1 methyl ester]” was run?
The value was 100%.

And the “Surviving Cell Number” value?
Its value is 0 cells/ml.

How did the “Percentage Inhibition” value turn out when `CCCCCC=CC=C1C(=O)C[C@H](O)[C@@H]1CC(=O)CCCCC(=O)OC` [(12EZ,14EZ)-(9α)-6,11-Dioxo-9-hydroxyprosta-12,14-dienoic acid methyl ester] was run?
Its value is 100%.

What about the “Surviving Cell Number” value of the same compound?
The value was 0 cells/ml.
